Like-named read-outs stand apart in the source and are kept apart here.

Here are results for three compounds from paper PMC4060991, “The Human Orphan Nuclear Receptor Tailless (TLX, NR2E1) Is Druggable” (PLoS ONE, 2014).

Assay [1] concerns the target T1, TLX LBD (Homo sapiens, UniProt Q9Y466). The assay can be described thus: Biolayer interferometry (Octet Red 384) direct binding to immobilized TLX LBD. On the set-up: cDNA fragments encoding human TLX LBD (a.a. 187–385) were cloned; His6 followed by TEV protease cleavage site (N); made in house; host or cells: E. coli BL21 (DE3) star. The note with it: for association/dissociation behaviour (sensorgram): dose-response curves; for maximum binding response (plateau): highest concentrations tested, expected maximum 0.08–0.1 nm for 1:1. As for the experimental part: Cloning was accomplished with a standard double digest cloning protocol after PCR according to manufacturer’s protocol (Avidity), and the plasmid was sequenced (ACGT, Inc). […] A duplicate set of sensors which serve as reference surfaces were incubated in […] solution of blocked biotinylated Streptavidin protein (Scripps Laboratories) to a loading signal of about 5.5 nm as described by manufacturer’s protocol (FortéBio). Binding of the individual compounds (100 µM) or 1% DMSO (solvent control) was measured over immobilized TLX LBD target biosensors and reference surfaces. Corrected binding response sensorgrams were recorded and analyzed. Data analysis on the FortéBio Octet RED instrument was performed using the FortéBio data analysis software. The analysis accounts for non-specific binding, background, and signal drift and minimizes well based and sensor variability.
The corresponding equilibrium dissociation constants (KD) were determined using steady state analysis of compounds binding affinities, assuming 1∶1 ligand - protein stoichiometry.
A general note: In BLI a coated tip is dipped into the sample, and binding shifts an interference pattern.

In assay [2] the target is ERβ LBD (Homo sapiens, UniProt Q92731). The assay can be described thus: DSF on purified ERβ LBD. The note with it: compound 500 µM; unliganded Tm ∼51°C.
Description: (§1) Protein stability was assessed with DSF in absence or presence of test compounds in a LightCycler 480 II qRT-PCR Detection System (Roche) in 384-well format. Sypro-Orange dye (Life Technologies) was used to monitor fluorescence, with filters for fluorescence excitation at 465 nm and for fluorescence emission at 610 nm. […] Tested sample mixtures were heated from 25°C to 96°C at a rate of 0.05°C/sec with 11 acquisitions per °C. Each compound was tested in duplicates. The melting temperature (Tm) for each sample was deduced by the ThermoQ Analytical software (HMRI) from the first derivative of the corresponding denaturation curve generated by the LightCycler 480 software. The same protocol was applied to investigate the stability of purified ERβ and LXRβ LBDs in presence or absence of the compounds. The optimal final concentrations for these experiments were 0.02 mg/mL for ERβ LBD and 0.20 mg/mL for LXRβ LBD. All DSF-based analyses were performed using freshly purified protein.
The target in assay [3] is T1, TLX LBD. As to the kind of experiment: GAL4-TLX LBD luciferase transactivation assay in HeLa cells. It is filed as cell-based. On the set-up: expressed in transfected cells; host or cells: HeLa. On the procedure:
The luciferase reporter pGL4.35 [luc2P/9XGAL4UAS/Hygro] vector was obtained from Promega. pBIND-TLX LBD was fully sequenced (ACGT, Inc.).
HeLa cells were maintained in D-MEM High Glucose (Hyclone) supplemented with 10% charcoal:dextran stripped FBS (Hyclone) and 1x Pen/Strep antibiotics (Life Technologies). Transient transfections were carried out in batches on 100,000 cells seeded into 12-well tissue culture plates. The co-transfections were performed using the TransFectin Lipid reagent (Bio-Rad) with approximately 10 ng/well of Gal4 DBD (gift from Phuong Nguyen, Fletterick Laboratory, UCSF) or GAL4-TLX LBD, 10 ng/well of renilla luciferase gene (Promega) for internal control and 200 ng/well of pGL4.35 reporter gene (containing an upstream Gal4 Upstream Activator Sequence and the luciferase gene, Promega). Approximately, 3 h after transfections, cells were treated with compounds of interest at different concentrations, or solvent (DMSO, 0.1%) in DMEM containing no fetal bovine serum or antibiotics. After a 16-h incubation, luciferase activities were assessed using Dual Luciferase assay reagent (Promega). Luciferase activities were calculated by normalizing firefly luciferase to renilla luciferase signal. […] Cells transfected with Gal4 DBD vector served as a control for TLX independent effects.
All measurements were performed in triplicates and repeated in three independent experiments. Prism 6 was used to calculate EC50.

Assay [4] deals with T2, human LXRβ LBD (Homo sapiens, UniProt P55055).
T2 construct: human LXRβ LBD (Liver X Receptor beta, a.a. 226–460) was expressed; His6 followed by TEV protease cleavage site (N); made in house; host or cells: E. coli BL21 (DE3) star
T2 sequence (P55055 226-460): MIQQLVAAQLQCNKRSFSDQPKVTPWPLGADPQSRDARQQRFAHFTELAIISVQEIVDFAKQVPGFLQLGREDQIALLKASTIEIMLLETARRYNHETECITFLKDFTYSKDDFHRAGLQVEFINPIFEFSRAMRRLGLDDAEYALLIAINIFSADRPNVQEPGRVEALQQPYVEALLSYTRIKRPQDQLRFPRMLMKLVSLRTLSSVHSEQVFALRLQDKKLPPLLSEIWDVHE
The assay can be described thus: DSF on purified LXRβ LBD. It is filed as binding. The note with it: compound 500 µM; unliganded Tm ∼39°C.
Description: as §1

Assay [5] addresses T3, COUP-TFII LBD (Homo sapiens, UniProt P24468).
T3 construct: expressed in transfected cells; host or cells: HeLa
T3 sequence (P24468 177-403 limits assumed): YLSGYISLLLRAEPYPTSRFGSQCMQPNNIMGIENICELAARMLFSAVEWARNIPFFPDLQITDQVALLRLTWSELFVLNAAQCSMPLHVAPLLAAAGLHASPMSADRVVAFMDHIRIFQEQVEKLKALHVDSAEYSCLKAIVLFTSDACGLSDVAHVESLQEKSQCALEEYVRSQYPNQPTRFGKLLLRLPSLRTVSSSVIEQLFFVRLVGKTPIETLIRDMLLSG
As to the kind of experiment: GAL4 DBD-COUP-TFII LBD luciferase transactivation assay in HeLa cells. It is filed as cell-based. The note with it: 10 µM, 24 h, alone or in competition with 9-cis retinoic acid 5 µM. As for the experimental part: For the transactivation assays with the GAL4 DBD-COUP-TFII LBD plasmid ([28], gift from Dr. H. Eric Xu, Van Andel Institute), we transiently transfected in batches of 10^5 HeLa cells seeded into 12-well tissue culture plates vectors encoding either Gal4 DBD or Gal4 DBD-COUP-TFII LBD fusion (both at 100 ng/well), pGL4.35 reporter gene (200 ng/well) and renilla luciferase gene (100 ng/well, internal control). At 24 h after the transfections, cells were treated with either DMSO (0.1%, control) or compounds ccrp1, ccrp2 or ccrp3 at 10 µM, in the absence or the presence of 9-cis retinoic acid (RA, 5 µM). Following 24 h incubation, luciferase activities in each well were assessed as described above. Cells transfected with Gal4 DBD vector served as a control for COUP-TFII independent effects.

Assay [6] addresses T1, TLX LBD. The assay can be described thus: Differential scanning fluorimetry (DSF) on purified TLX LBD.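 Further: thermal unfolding followed by Sypro-Orange fluorescence (excitation 465 nm, emission 610 nm) in 384-well plates, Tm taken from the first derivative of the denaturation curve, duplicate samples.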 It counts as binding. On the set-up: cDNA fragments encoding human TLX LBD (a.a. 187–385) were cloned; His6 followed by TEV protease cleavage site (N); made in house; host or cells: E. coli BL21 (DE3) star. The note with it: compound 500 µM; reference Tm 58.8±0.3°C with 5% DMSO. For orientation: DSF heats the sample and reads unfolding from a dye or from intrinsic fluorescence.
Description: Protein stability was assessed with DSF in absence or presence of test compounds in a LightCycler 480 II qRT-PCR Detection System (Roche) in 384-well format. Sypro-Orange dye (Life Technologies) was used to monitor fluorescence, with filters for fluorescence excitation at 465 nm and for fluorescence emission at 610 nm. […] Each compound was tested in duplicates. The melting temperature (Tm) for each sample was deduced by the ThermoQ Analytical software (HMRI) from the first derivative of the corresponding denaturation curve generated by the LightCycler 480 software. […] All DSF-based analyses were performed using freshly purified protein.

The mark [7] stands for this setting: HeLa cells, 16 h treatment, read-out: EC50 for enhancement of TLX transcriptional repression.

T1 sequence (Q9Y466 187-385): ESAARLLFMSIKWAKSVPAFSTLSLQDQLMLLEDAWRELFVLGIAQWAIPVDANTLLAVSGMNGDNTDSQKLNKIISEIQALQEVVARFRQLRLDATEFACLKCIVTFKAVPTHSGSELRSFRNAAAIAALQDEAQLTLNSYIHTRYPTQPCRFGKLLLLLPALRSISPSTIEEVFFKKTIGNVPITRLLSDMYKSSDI
Chain of ERβ LBD (Q92731 261-530): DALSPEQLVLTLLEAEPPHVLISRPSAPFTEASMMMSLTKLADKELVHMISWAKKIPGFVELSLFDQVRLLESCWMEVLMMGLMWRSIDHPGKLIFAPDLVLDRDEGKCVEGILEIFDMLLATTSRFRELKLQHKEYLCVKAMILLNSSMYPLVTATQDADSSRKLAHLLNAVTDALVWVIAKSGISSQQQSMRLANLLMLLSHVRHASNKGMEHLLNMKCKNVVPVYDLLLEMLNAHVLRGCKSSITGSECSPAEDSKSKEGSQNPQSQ

For orientation: EC50 means the concentration at which the effect is half-maximal. For the compound `CC(=O)[C@H]1CC[C@H]2[C@@H]3C=CC4=CC(=O)CC[C@@]4(C)[C@@H]3CC[C@]12C` [ccrp3, Dydrogesterone], in assay [1], the “association/dissociation behaviour (sensorgram)” value was “quick association and dissociation”; the “maximum binding response (plateau)” value is 0.06–0.1 nm. Also, the “melting temperature shift of ERβ LBD” value in assay [2] is on record as “Neither compound demonstrates any significant effect on the melting temperatures”. Besides, the EC50 in assay [3] (setting [7]) was determined as 250 ± 100 nM. The “melting temperature shift of LXRβ LBD” value in assay [4] was “Neither compound demonstrates any significant effect on the melting temperatures”. For the same compound, in assay [5], the “effect on COUP-TFII luciferase activity” value is recorded as “No effect on luciferase activity was detected”. Moreover, in assay [6], the “melting temperature (Tm) of TLX LBD in presence of compound” value (“melting temperature (Tm) of TLX LBD” for short) worked out at 55.78±0.3 °C.
For the compound `Cc1cc(C(=O)N2CCN(C(c3ccccc3)c3ccccc3)CC2)nn1C` [ccrp2, 1-(1,5-dimethylpyrazole-3-carbonyl)-4-(diphenylmethyl)piperazine], in assay [1], the “association/dissociation behaviour (sensorgram)” value is “quick association and dissociation”; the “maximum binding response (plateau)” value is reported as 0.06–0.1 nm. Further, the “melting temperature shift of ERβ LBD” value in assay [2] was “Neither compound demonstrates any significant effect on the melting temperatures”. The same compound had an EC50 in assay [3] of 1000 ± 300 nM. Further, the “melting temperature shift of LXRβ LBD” value in assay [4] is “Neither compound demonstrates any significant effect on the melting temperatures”. For the same compound, the “effect on COUP-TFII luciferase activity” value in assay [5] is “No effect on luciferase activity was detected”. Further, in assay [6], the “melting temperature (Tm) of TLX LBD” value was determined as 52.49±1.1 °C.
`CC(C)c1c(CN(C)C(C)Cc2ccccc2)n(C)n(-c2ccccc2)c1=O` (stereo not drawn) [ccrp1, Famprofazone]: in assay [1], the “association/dissociation behaviour (sensorgram)” value is “quick association and dissociation”; the “maximum binding response (plateau)” value was 0.04 nm. In addition, the “melting temperature shift of ERβ LBD” value in assay [2] is reported as “Neither compound demonstrates any significant effect on the melting temperatures”. Also, the EC50 in assay [3] (setting [7]) came out at 9200 ± 1000 nM. Further, the “melting temperature shift of LXRβ LBD” value in assay [4] is on record as “Neither compound demonstrates any significant effect on the melting temperatures”. Also, the “effect on COUP-TFII luciferase activity” value in assay [5] is reported as “No effect on luciferase activity was detected”. In addition, the “melting temperature (Tm) of TLX LBD” value in assay [6] was found to be 53.04±0.3 °C.
